Marks after values point to notes of the source that are not given here.
Tests used:
[1] = system: NCI-H322 (non-small cell lung carcinoma); test: NCI H322 subcutaneous human xenograft mouse model, tumor growth; assay type: in vivo, SCID mice; conditions: for tumor growth inhibition: monotherapy, FIG. 2, range over doses
Description: NCI H322 cells obtained from the ATCC and were cultured in RPMI 1640+10% Fetal bovine serum, Sodium pyruvate and L-Glutamine at […] in a 95/5% air/CO2 atmosphere. Cells were harvested following trypsin digestion and brought to a density of 2×10^6 cells/200 μl in PBS. Tumors were initiated by injection of the cell suspension subcutaneously in the axillary region. In addition some experiments were performed following serial transplantation of tumor fragments in SCID mice. Tumors were initiated by injection of tumor fragments subcutaneously in the axillary region.
(§1) For the xenograft models used here, solid tumors were measured by electronic caliper measurement through the skin. Measurements were typically made twice weekly.
Drugs were administered by P.O. route. […] These studies were performed under IACUC #468 and 603.
Data are presented as percent inhibition of tumor growth, as compared to vehicle.

[2] = system: BT474 (human breast tumor line); test: BT474 subcutaneous human xenograft mouse model, tumor growth; assay type: in vivo, SCID mice; conditions: for tumor growth inhibition: monotherapy, FIG. 1, range over doses
Description: The BT474 xenografts were maintained by serial transplantation of tumor fragments in SCID mice. Tumors are initiated by injection of tumor fragments subcutaneously in the axillary region.
as §1
Drugs were administered by P.O. route. […] These studies were performed under IACUC #468 and 603. The results are illustrated in Tables 1-4, and FIGS. 1 and 2. FIGS. 1 and 2 are the graphical representation of the data contained in Tables 3 and 4, respectively.
The column labeled “Exp. 1” contains the results presented in FIG. 1 for the last data point on the graph. The column labeled “Exp. 2” contains analogous results from an independent experiment. Data are presented as percent inhibition of tumor growth, as compared to vehicle.

[3] = Exp. 1, Example 1 30 mg/kg P.O. once daily
[4] = Exp. 1, Example 1 100 mg/kg P.O. once daily
[5] = Exp. 2, Example 1 30 mg/kg P.O. once daily
[6] = Exp. 2, Example 1 100 mg/kg P.O. once daily
[7] = Exp. 1, Example 3 60 mg/kg P.O. once daily

With `Cc1ccc(Nc2nccc(N(C)c3ccc4c(C)n(C)nc4c3)n2)cc1S(N)(=O)=O` [Example 1, 5-({4-[(2,3-dimethyl-2H-indazol-6-yl)(methyl)amino]pyrimidin-2-yl}amino)-2-methylbenzenesulfonamide] the Mean tumor volume ([1]; Day 29, Ex. 1 30 mg/kg) was 182 mm^3, the Mean tumor volume ([1]; Day 29, Ex. 1 100 mg/kg) was 166 mm^3 and the Mean tumor volume ([1]; Day 34, Ex. 1 30 mg/kg) was 351 mm^3. It also gave a Mean tumor volume ([1]; Day 34, Ex. 1 100 mg/kg) of 268 mm^3, a Mean tumor volume ([1]; Day 37, Ex. 1 30 mg/kg) of 358 mm^3 and a Mean tumor volume ([1]; Day 37, Ex. 1 100 mg/kg) of 266 mm^3. It also gave a Mean tumor volume ([1]; Day 41, Ex. 1 30 mg/kg) of 329 mm^3, a Mean tumor volume ([1]; Day 41, Ex. 1 100 mg/kg) of 316 mm^3 and a Mean tumor volume ([1]; Day 44, Ex. 1 30 mg/kg) of 309 mm^3. It also gave a Mean tumor volume ([1]; Day 44, Ex. 1 100 mg/kg) of 312 mm^3, a Mean tumor volume ([1]; Day 48, Ex. 1 30 mg/kg) of 377 mm^3 and a Mean tumor volume ([1]; Day 48, Ex. 1 100 mg/kg) of 297 mm^3. For the same compound, the Mean tumor volume ([1]; Day 51, Ex. 1 30 mg/kg) was 389 mm^3, the Mean tumor volume ([1]; Day 51, Ex. 1 100 mg/kg) was 313 mm^3 and the “percent inhibition of tumor growth, as compared to vehicle” value (shortened to “percent inhibition of tumor growth”) [1, 3] was 34%. The “percent inhibition of tumor growth” value [1, 4] was 56* %, the “percent inhibition of tumor growth” value [1, 5] was 20% and the “percent inhibition of tumor growth” value [1, 6] was 62%. For the same compound, the “percent inhibition of tumor growth” value ([1]; Exp. 3, Example 1 30 mg/kg P.O. once daily) was 86* %, the “percent inhibition of tumor growth” value ([1]; Exp. 3, Example 1 100 mg/kg P.O. once daily) was 88* % and the tumor growth inhibition [1] was 86-88%. The Mean tumor volume ([2]; Day 36, Ex. 1 30 mg/kg) was 281 mm^3, the Mean tumor volume ([2]; Day 36, Ex. 1 100 mg/kg) was 293 mm^3 and the Mean tumor volume ([2]; Day 38, Ex. 1 30 mg/kg) was 406 mm^3. It also gave a Mean tumor volume ([2]; Day 38, Ex. 1 100 mg/kg) of 417 mm^3, a Mean tumor volume ([2]; Day 41, Ex. 1 30 mg/kg) of 481 mm^3 and a Mean tumor volume ([2]; Day 41, Ex. 1 100 mg/kg) of 453 mm^3. It also gave a Mean tumor volume ([2]; Day 44, Ex. 1 30 mg/kg) of 601 mm^3, a Mean tumor volume ([2]; Day 44, Ex. 1 100 mg/kg) of 519 mm^3 and a Mean tumor volume ([2]; Day 49, Ex. 1 30 mg/kg) of 722 mm^3. It also gave a Mean tumor volume ([2]; Day 49, Ex. 1 100 mg/kg) of 519 mm^3, a Mean tumor volume ([2]; Day 52, Ex. 1 30 mg/kg) of 777 mm^3 and a Mean tumor volume ([2]; Day 52, Ex. 1 100 mg/kg) of 515 mm^3. For the same compound, the Mean tumor volume ([2]; Day 55, Ex. 1 30 mg/kg) was 860 mm^3, the Mean tumor volume ([2]; Day 55, Ex. 1 100 mg/kg) was 496 mm^3 and the Mean tumor volume ([2]; Day 57, Ex. 1 30 mg/kg) was 954 mm^3. The Mean tumor volume ([2]; Day 57, Ex. 1 100 mg/kg) was 513 mm^3, the “percent inhibition of tumor growth” value [2, 3] was 16% and the “percent inhibition of tumor growth” value [2, 4] was 78* %. For the same compound, the “percent inhibition of tumor growth” value [2, 5] was 47* %, the “percent inhibition of tumor growth” value [2, 6] was 64* % and the tumor growth inhibition [2] was 16-78%.
For `CS(=O)(=O)CCNCc1ccc(-c2ccc3ncnc(Nc4ccc(OCc5cccc(F)c5)c(Cl)c4)c3c2)o1` [Example 3, N-{3-Chloro-4-[(3-fluorobenzyl)oxy]phenyl}-6-[5-({[2-(methanesulphonyl)ethyl]amino}methyl)-2-furyl]-4-quinazolinamine], the Mean tumor volume ([1]; Day 29, Ex. 3 20 mg/kg) was 167 mm^3, the Mean tumor volume ([1]; Day 29, Ex. 3 60 mg/kg) was 175 mm^3 and the Mean tumor volume ([1]; Day 34, Ex. 3 20 mg/kg) was 288 mm^3. For the same compound, the Mean tumor volume ([1]; Day 34, Ex. 3 60 mg/kg) was 252 mm^3, the Mean tumor volume ([1]; Day 37, Ex. 3 20 mg/kg) was 403 mm^3 and the Mean tumor volume ([1]; Day 37, Ex. 3 60 mg/kg) was 313 mm^3. The Mean tumor volume ([1]; Day 41, Ex. 3 20 mg/kg) was 511 mm^3, the Mean tumor volume ([1]; Day 41, Ex. 3 60 mg/kg) was 400 mm^3 and the Mean tumor volume ([1]; Day 44, Ex. 3 20 mg/kg) was 616 mm^3. For the same compound, the Mean tumor volume ([1]; Day 48, Ex. 3 20 mg/kg) was 837 mm^3, the Mean tumor volume ([1]; Day 48, Ex. 3 60 mg/kg) was 577 mm^3 and the Mean tumor volume ([1]; Day 51, Ex. 3 20 mg/kg) was 871 mm^3. The Mean tumor volume ([1]; Day 51, Ex. 3 60 mg/kg) was 649 mm^3, the “percent inhibition of tumor growth” value [1, 7] was 75* % and the “percent inhibition of tumor growth” value ([1]; Exp. 2, Example 3 20 mg/kg P.O. once daily) was 31%. The “percent inhibition of tumor growth” value ([1]; Exp. 3, Example 3 20 mg/kg P.O. once daily) was 28%, the “percent inhibition of tumor growth” value ([1]; Exp. 3, Example 3 60 mg/kg P.O. once daily) was 54% and the tumor growth inhibition [1] was 28-54%. The Mean tumor volume ([2]; Day 36, Ex. 3 60 mg/kg) was 235 mm^3, the Mean tumor volume ([2]; Day 36, Ex. 3 200 mg/kg) was 219 mm^3 and the Mean tumor volume ([2]; Day 38, Ex. 3 60 mg/kg) was 328 mm^3. It also gave a Mean tumor volume ([2]; Day 38, Ex. 3 200 mg/kg) of 262 mm^3, a Mean tumor volume ([2]; Day 41, Ex. 3 60 mg/kg) of 367 mm^3 and a Mean tumor volume ([2]; Day 41, Ex. 3 200 mg/kg) of 184 mm^3. For the same compound, the Mean tumor volume ([2]; Day 44, Ex. 3 60 mg/kg) was 485 mm^3, the Mean tumor volume ([2]; Day 44, Ex. 3 200 mg/kg) was 242 mm^3 and the Mean tumor volume ([2]; Day 49, Ex. 3 60 mg/kg) was 554 mm^3. It also gave a Mean tumor volume ([2]; Day 49, Ex. 3 200 mg/kg) of 288 mm^3, a Mean tumor volume ([2]; Day 52, Ex. 3 60 mg/kg) of 633 mm^3 and a Mean tumor volume ([2]; Day 52, Ex. 3 200 mg/kg) of 270 mm^3. The Mean tumor volume ([2]; Day 55, Ex. 3 60 mg/kg) was 763 mm^3, the Mean tumor volume ([2]; Day 55, Ex. 3 200 mg/kg) was 219 mm^3 and the Mean tumor volume ([2]; Day 57, Ex. 3 60 mg/kg) was 878 mm^3. The Mean tumor volume ([2]; Day 57, Ex. 3 200 mg/kg) was 214 mm^3, the “percent inhibition of tumor growth” value [2, 7] was 21% and the “percent inhibition of tumor growth” value ([2]; Exp. 1, Example 3 200 mg/kg P.O. once daily) was 99* %. For the same compound, the “percent inhibition of tumor growth” value ([2]; Exp. 2, Example 3 60 mg/kg P.O. once daily) was 58* %, the “percent inhibition of tumor growth” value ([2]; Exp. 2, Example 3 200 mg/kg P.O. once daily) was 85* % and the tumor growth inhibition [2] was 21-99%.

Reference: patent US20100010022A1, “CANCER TREATMENT METHOD” (SmithKline Beecham Corporation, priority 2004, published 2010)
